In PubChem BioAssay (NCI):
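A five-concentration, 48-hour dose response in 96-well plates underlies each endpoint, interpolated linearly between surrounding concentrations. Definition used: TGI = concentration required for complete inhibition of growth.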

How the values were obtained:
Experiment in all cases: NCI-60 cell line screen, 48 h
SNB-75 CNS = system: SNB-75 CNS
MCF7 breast = system: MCF7 breast
PC-3 prostate = system: PC-3 prostate
RPMI-8226 leukemia = system: RPMI-8226 leukemia
OVCAR-8 ovarian = system: OVCAR-8 ovarian
DU-145 prostate = system: DU-145 prostate
TK-10 renal = system: TK-10 renal
SN12C renal = system: SN12C renal
IGROV1 ovarian = system: IGROV1 ovarian
MDA-MB-231 breast = system: MDA-MB-231 breast

Row | SMILES | TGI (SNB-75 CNS) [µM] | TGI (MCF7 breast) [µM] | TGI (PC-3 prostate) [µM] | TGI (RPMI-8226 leukemia) [µM] | TGI (OVCAR-8 ovarian) [µM] | TGI (DU-145 prostate) [µM] | TGI (TK-10 renal) [µM] | TGI (SN12C renal) [µM] | TGI (IGROV1 ovarian) [µM] | TGI (MDA-MB-231 breast) [µM]
1 | Nc1ncc2c(n1)-c1ccccc1OC2NC1CC1 (stereo unspecified) | > 100 | > 100 | > 100 | > 100 | > 100 | > 100 | > 100 | > 100 | > 100 | > 100
2 | CSc1nc(=S)[nH]c2n[nH]c(C)c12 | > 100 | > 100 | > 100 | > 100 | > 100 | > 100 | > 100 | > 100 | – | > 100
3 | Cc1ccc(-c2c(C#N)c(-c3ccc(N(C)C)cc3)c(C#N)c(=O)n2NS(=O)(=O)c2ccccc2)cc1 | > 100 | > 100 | > 100 | 33.2 | > 100 | – | > 100 | > 100 | > 100 | > 100
4 | CCCCCCCCCC(=O)OCC1(CO)C/C(=C/CC(C(C)C)C(C)C)C(=O)O1 (stereo unspecified) | > 100 | > 100 | > 100 | – | > 100 | > 100 | > 100 | > 100 | > 100 | > 100
5 | CC(=O)Nc1c(C)cc(OCC(=O)O)cc1C | > 100 | > 100 | > 100 | > 100 | > 100 | > 100 | > 100 | > 100 | > 100 | > 100
6 | N#Cc1c(-c2ccccc2)c(C#N)c(=O)n(NS(=O)(=O)c2ccccc2)c1O | > 100 | > 100 | > 100 | > 100 | > 100 | – | > 100 | > 100 | > 100 | > 100
7 | CCCOC(=O)c1cc(C(=CCC[C@H]2CC[C@@]3(C)[C@@H](CC[C@@H]4[C@@H]3CC[C@]3(C)[C@@H](C(C)CCCC(C)C)CC[C@@H]43)C2)c2cc(Cl)c(O)c(C(=O)OCCC)c2)cc(Cl)c1O (stereo partly specified) | > 50 | – | > 50 | > 50 | > 50 | > 50 | – | > 50 | > 50 | > 50
8 | CCN(CC)c1ccc(/C=C/C2=NN(c3cccc(S(=O)(=O)O)c3)C3(C2)C(Cl)C(=O)N3c2nc3ccccc3s2)cc1 (stereo unspecified) | 25.3 | 21.1 | 25.1 | 6.89 | 31.4 | 25.2 | 14.3 | 29 | 17 | 27
9 | Cc1ccc(S(=O)(=O)N(c2ccccc2F)C2CCCCC2O)cc1 (stereo unspecified) | 88.5 | 48.5 | > 100 | > 100 | > 100 | 96.7 | > 100 | > 100 | – | > 100
10 | NN/C(=N\S(=O)(=O)c1cc(Cl)c(Oc2ccc([N+](=O)[O-])cc2Cl)c(Cl)c1)Nc1ccc(Cl)cc1 | 56.3 | 58.4 | 81.6 | > 100 | 60.4 | 38.4 | 56.6 | 33.2 | 42.3 | 39.9
11 | CC1C2CC(C(C3C(=O)C4CC3C(C)(C)C4C)C2=O)C1(C)C (stereo unspecified) | > 100 | > 100 | > 100 | – | > 100 | > 100 | > 100 | > 100 | > 100 | > 100
12 | O=C(Nc1ccccc1)N1CCNC1=S | > 100 | > 100 | – | > 100 | > 100 | > 100 | – | > 100 | > 100 | > 100
13 | O=c1cc(-c2ccc(O)c(O)c2)oc2cc(OC3OC(CO)C(O)C(O)C3O)cc(O)c12 (stereo unspecified) | > 100 | > 100 | > 100 | > 100 | > 100 | > 100 | > 100 | > 100 | > 100 | > 100
14 | CC1=NC(=Cc2ccc(Cl)cc2)C(=O)N1n1c(-c2ccccc2)nc2ccccc2c1=O | 99.6 | > 100 | > 100 | > 100 | > 100 | > 100 | > 100 | > 100 | > 100 | > 100
15 | O=C1/C(=C/c2cccc([N+](=O)[O-])c2)CCCc2ccccc21 | 29.9 | 15.3 | 23 | 49 | 28.9 | 28.2 | 30.8 | 33.1 | 25.8 | 34.2
16 | CCC(=O)N(c1ccccc1)C(C)CN1CCC(O)(c2ccccc2)CC1 (stereo unspecified) | > 100 | > 100 | > 100 | > 100 | > 100 | > 100 | > 100 | > 100 | > 100 | > 100
17 | O=C(CNC(=O)OCc1ccccc1)NCCCCC(NC(=O)OCc1ccccc1)C(=O)O (stereo unspecified) | > 100 | > 100 | > 100 | > 100 | > 100 | > 100 | > 100 | > 100 | > 100 | > 100
18 | Cc1[nH]c2ncn(/N=C/c3ccccc3)c(=N)c2c1Cc1ccccc1 | > 100 | > 100 | > 100 | > 100 | > 100 | > 100 | > 100 | > 100 | > 100 | > 100
19 | CCOP(=O)(CS(C)=O)O[C@@H]1C[C@H](C)CC[C@H]1C(C)C (stereo partly specified) | > 27.5 | 11.1 | 19.7 | 5.3 | 17.4 | 26.2 | 16.3 | 6.12 | 10.3 | 12.8
20 | COc1ccccc1NC(=O)C(C#N)=C(SC)SC | – | > 100 | > 100 | > 100 | – | > 100 | > 100 | > 100 | > 100 | > 100
21 | CCCCCCN(C(=O)Oc1ccccc1)C(C#N)c1ccccc1 (stereo unspecified) | > 100 | > 100 | > 100 | > 100 | > 100 | > 100 | > 100 | > 100 | > 100 | > 100
22 | CCOC(=O)CNC(=O)C(CSC(=O)N(O)c1ccc(Br)cc1)NC(=O)CCC(N)C(=O)OCC (stereo unspecified) | – | > 50 | > 50 | > 50 | > 50 | > 50 | – | > 50 | > 50 | > 50
